Active and inactive are the calls of the source. The rule behind the calls is not given here.
Molecular target: Sphingosine 1-phosphate receptor 1 (Homo sapiens) (UniProt P21453)
Test: PubChem AID 2351
Details: S1P1-expressing cells, fluorescence antagonist assay

Sequence of Sphingosine 1-phosphate receptor 1 (Homo sapiens) (P21453 whole entry, looked up): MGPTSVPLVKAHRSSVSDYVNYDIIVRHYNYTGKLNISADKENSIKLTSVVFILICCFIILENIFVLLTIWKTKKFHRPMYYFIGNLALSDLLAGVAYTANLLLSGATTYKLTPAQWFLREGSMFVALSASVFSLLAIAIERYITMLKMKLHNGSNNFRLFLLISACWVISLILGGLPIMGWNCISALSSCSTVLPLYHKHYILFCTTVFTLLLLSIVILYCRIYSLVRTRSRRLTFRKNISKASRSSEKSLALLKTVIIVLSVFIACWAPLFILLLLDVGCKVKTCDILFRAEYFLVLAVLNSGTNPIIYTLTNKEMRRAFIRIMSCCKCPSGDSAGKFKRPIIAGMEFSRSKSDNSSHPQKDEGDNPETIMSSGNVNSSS

Structure (SMILES): Cc1cccc(C)c1NC(=O)c1ccc(-c2cc(Cl)ccc2Cl)o1
- IC50: > 25 µM (inactive)
